Source: patent US20250195556A1, “COMPOSITIONS, KITS, AND METHODS TO INDUCE ACQUIRED CYTORESISTANCE USING STRESS PROTEIN INDUCERS” (FRED HUTCHINSON CANCER RESEARCH CENTER, priority 2014, published 2025)

Assays:
haptoglobin [1] = assay: Renal cortical haptoglobin mRNA and protein after IV N-Mgb, SnPP or both; type: in vivo, mice
Text: Cytoresistance-inducing reagents. […] (#Mb0360; Sigma) was used as the primary cytoresistance-inducing agent. However, because myoglobin (Mgb) has an inherent nephrotoxic potential (particularly under conditions of volume depletion and aciduria), two approaches were used to mitigate Mgb's potential adverse effects. First, the Mgb was converted into a nitrited form by the addition of equimolar amount of sodium (Na) nitrite. In this regard, nitrite is an ambidentate molecule that directly binds 1:1 to myoglobin Fe either via its oxygen or nitrogen component. Cotton et al. Advanced inorganic chemistry. Hobocken, NJ: Wiley-Interscience, 1999:1355; Silaghi-Dumitrescu et al. Nitric Oxide 2014; 42 C: 32-9. […] Rassaf et al. Circ Res 2014; 114:1601-10; Totzeck et al. Circulation 2012; 126:325-34 [J Clin Invest 1992; 89:989-95]; Totzeck et al. PLOS One 2014; 22: e105951; Hendgen-Cotta et al. Proc Natl Acad Sci USA 2008; 105:10256-61.
(§1) Thirty-two mice were divided into 4 equal groups: (1) control mice; (2) mice treated with 1 mg of N-Mgb injection (as a bolus through the tail vein); (3) mice treated with […] of SnPP (via tail vein); and (4) mice treated with combined N-Mgb 1 SnPP. After either 4 hours (n=16) or 18 hours (n=16), the mice were deeply anesthetized with pentobarbital (50 mg/kg), the abdomen was opened through a midline abdominal incision, and the kidneys were removed. To determine potential effects on extrarenal organs, a liver lobe and the heart were also removed. The tissues were iced and then extracted for protein and RNA (RNeasy Plus Mini; Qiagen, Valencia, California) and subjected to enzyme linked immunosorbent assay (ELISA) and reverse transcriptase polymerase chain reaction (RT-PCR) for HO-1, haptoglobin, and IL-10 protein and messenger RNAs (mRNAs). Zager et al. J Am Soc Nephrol 2014; 25:998-1012; Zager et al. Am J Physiol 2012; 303: F139-48. As an assessment of renal function, control mice and the 18 hour after N-Mgb+SnPP-treated mice had blood urea nitrogen (BUN) and plasma creatinine levels measured. Additionally, transverse 10% formalin fixed kidney sections ([…]) were cut and stained with hematoxylin and eosin (H&E) and periodic acid Schiff (PAS) to further assess potential injury.

Male CD-1 mice = assay: Glycerol model of rhabdomyolysis-induced AKI (Example 4); type: in vivo; details: IV pretreatment 18 hours before glycerol; 18 hours after glycerol
Protocol: Assessments of cytoresistance. Glycerol model of rhabdomyolysis-induced AKI. Twenty mice were divided into 4 equal groups (controls, mice treated with N-Mgb, SnPP, and mice treated with N-Mgb+SnPP tail vein injections) as described previously. 18 hours later, the mice were briefly anesthetized with isoflurane and immediately injected with 9 mL/kg of 50% glycerol, administered in equally divided doses into each hind limb. At 18 hours after glycerol injection, the mice were anesthetized with pentobarbital, the abdomen was opened, a blood sample for BUN and creatinine assessments was obtained from the vena cava, and the kidneys were resected. The control post-glycerol group and the N-Mgb+SnPP-pretreated glycerol group had kidney sections stained with H&E.
Calculations and statistics. All values are given as the mean […] standard error of the mean. Statistical comparisons were made by unpaired Student's t test. If multiple comparisons were made, the Bonferroni correction was applied. The severity of renal histologic injury in the glycerol AKI model was graded on a […] (least to most severe tubular necrosis and cast formation observed). The histologic results were compared by Wilcoxon rank sum test. Statistical significance was taken as a P value of <0.05.

HO-1 [2] = assay: Liver HO-1 mRNA and protein after IV N-Mgb, SnPP or both; type: in vivo, mice; details: for Liver mRNA: HO-1: control 1.1; for Liver protein: HO-1 protein: control 10.2
Protocol: as §1

haptoglobin [3] = assay: Liver haptoglobin mRNA and protein after IV N-Mgb, SnPP or both; type: in vivo, mice; set-up: Liver protein: Haptoglobin: unit not given beside the values; details: for Liver mRNA: Haptoglobin: control 0.5; for Liver protein: Haptoglobin: control 115.3
Protocol: as §1

IL-10 = assay: Liver IL-10 mRNA and protein after IV N-Mgb, SnPP or both; type: in vivo, mice; details: for Liver mRNA: IL-10: control 0.06; for Liver protein: IL-10: control 314
Protocol: as §1

HO-1 [4] = assay: Cardiac HO-1 mRNA and protein after IV N-Mgb, SnPP or both; type: in vivo, mice; details: for Cardiac mRNA: HO-1: control 0.07
Protocol: as §1

haptoglobin [5] = assay: Cardiac haptoglobin mRNA and protein after IV N-Mgb, SnPP or both; type: in vivo, mice; details: for Cardiac mRNA: Haptoglobin: control 0.31; for Cardiac protein: Haptoglobin: control 15.6
Protocol: as §1

[6] = Berglund et al. Hepatology 1988; cited from earlier work
[7] = test system: cultured proximal tubule (HK-2) cells; details: Zager & Burkhart, Kidney Int 1997; cited from earlier work

C=Cc1c2[n-]c(c1C)/C=c1\[n-]/c(c(C)c1C=C)=C\c1[n-]c(c(CCC(=O)O)c1C)/C=c1\[n-]c(c(C)c1CCC(=O)O)=C2.[Sn+4] [SnPP, tin protoporphyrin, reference compound]
Kidney mRNA: Haptoglobin (haptoglobin [1]; 4 h after Rx, control 0.20): 0.19 ± 0.01 | Kidney protein: Haptoglobin (haptoglobin [1]; 4 h after Rx, control 7.9): 13.1 ± 1.3 | Kidney mRNA cortex: Haptoglobin (haptoglobin [1]; 18 h after Rx, control 0.20): 0.23 ± 0.08 | Kidney protein: Haptoglobin (haptoglobin [1]; 18 h after Rx, control 10.3): 53.5 ± 17.2 | Protection against glycerol-induced AKI (BUN/creatinine levels) (Male CD-1 mice): virtually no effect | Liver mRNA: HO-1 (HO-1 [2]; 4 h after Rx): 3.15 ± 0.25 | Liver protein: HO-1 protein (HO-1 [2]; 4 h after Rx): 7.4 ± 0.7 | Liver mRNA: HO-1 (HO-1 [2]; 18 h after Rx): 2.56 ± 0.21 | Liver protein: HO-1 protein (HO-1 [2]; 18 h after Rx): 18 ± 2.5 | Liver mRNA: Haptoglobin (haptoglobin [3]; 4 h after Rx): 0.32 ± 0.02 | Liver protein: Haptoglobin (haptoglobin [3]; 4 h after Rx): 130.0 ± 8.9 | Liver mRNA: Haptoglobin (haptoglobin [3]; 18 h after Rx): 0.65 ± 0.17 | Liver protein: Haptoglobin (haptoglobin [3]; 18 h after Rx): 212.0 ± 63.6 | Liver mRNA: IL-10 (IL-10; 4 h after Rx): 0.14 ± 0.1 | Liver protein: IL-10 (IL-10; 4 h after Rx): 485 ± 47 | Liver mRNA: IL-10 (IL-10; 18 h after Rx): 0.05 ± 0.01 | Liver protein: IL-10 (IL-10; 18 h after Rx): 8198 ± 725 | Cardiac mRNA: HO-1 (HO-1 [4]; 4 h after Rx): 0.14 ± 0.01 | Cardiac mRNA: HO-1 (HO-1 [4]; 18 h after Rx): 0.09 ± 0.03 | Cardiac protein: HO-1 (HO-1 [4]; 18 h after Rx, control 1.5): 2.67 ± 0.4 | Cardiac mRNA: Haptoglobin (haptoglobin [5]; 4 h after Rx): 0.52 ± 0.21 | Cardiac protein: Haptoglobin (haptoglobin [5]; 4 h after Rx): 19.1 ± 2.1 | Cardiac mRNA: Haptoglobin (haptoglobin [5]; 18 h after Rx): 0.59 ± 0.17 | Cardiac protein: Haptoglobin (haptoglobin [5]; 18 h after Rx): 96.1 ± 36.2 | half-life [6]: 2 to 4 h | Reduction of Mgb toxicity by SnPP addition [7]: ≤ 85%
